Several values for one entry are separate records, joined by “and”; a condition that tells them apart may be missing. Equal entries are not always repeated.
Tests used:
PI3K-β = biological target: T1, PI3K-β (Homo sapiens, UniProt P42338); experiment: PI3K-β specific assay in platelets (thrombin peptide, activated GPIIb/IIIa); assay type: cell-based
T1 construct: from tissue; host or cells: platelets in whole blood

[1] = test system: developing adjuvant arthritis; experiment: Freund's complete adjuvant induced rat model of arthritis; assay type: in vivo
Excerpt: Freund's complete adjuvant induced arthritis in the rat is an experimental model of polyarthritis that has been widely used for nonclinical testing of numerous anti-arthritic agents that are either under nonclinical or clinical investigation, or are currently used as therapeutics in this disease.

[2] = Plasma protein binding, rat plasma; assay type: in vitro ADME; settings: 100 μM (41700 ng/mL)
Excerpt: […]. […] […].

[3] = Pharmacokinetics in BALB/c mice; assay type: in vivo, mouse
respiratory system = experiment: Respiratory study in Sprague-Dawley rat; settings: male rats, single oral dose up to 350 mg/kg
PI3K δ = PI3K δ (Homo sapiens, UniProt O00329); experiment: Clinical study in healthy adult subjects: basophil activation (CD63 on CCR3+ basophils); assay type: in vivo; set-up: from tissue; host or cells: blood basophils (CCR3+) of healthy adult subjects
Sequence of PI3K δ (O00329 whole entry): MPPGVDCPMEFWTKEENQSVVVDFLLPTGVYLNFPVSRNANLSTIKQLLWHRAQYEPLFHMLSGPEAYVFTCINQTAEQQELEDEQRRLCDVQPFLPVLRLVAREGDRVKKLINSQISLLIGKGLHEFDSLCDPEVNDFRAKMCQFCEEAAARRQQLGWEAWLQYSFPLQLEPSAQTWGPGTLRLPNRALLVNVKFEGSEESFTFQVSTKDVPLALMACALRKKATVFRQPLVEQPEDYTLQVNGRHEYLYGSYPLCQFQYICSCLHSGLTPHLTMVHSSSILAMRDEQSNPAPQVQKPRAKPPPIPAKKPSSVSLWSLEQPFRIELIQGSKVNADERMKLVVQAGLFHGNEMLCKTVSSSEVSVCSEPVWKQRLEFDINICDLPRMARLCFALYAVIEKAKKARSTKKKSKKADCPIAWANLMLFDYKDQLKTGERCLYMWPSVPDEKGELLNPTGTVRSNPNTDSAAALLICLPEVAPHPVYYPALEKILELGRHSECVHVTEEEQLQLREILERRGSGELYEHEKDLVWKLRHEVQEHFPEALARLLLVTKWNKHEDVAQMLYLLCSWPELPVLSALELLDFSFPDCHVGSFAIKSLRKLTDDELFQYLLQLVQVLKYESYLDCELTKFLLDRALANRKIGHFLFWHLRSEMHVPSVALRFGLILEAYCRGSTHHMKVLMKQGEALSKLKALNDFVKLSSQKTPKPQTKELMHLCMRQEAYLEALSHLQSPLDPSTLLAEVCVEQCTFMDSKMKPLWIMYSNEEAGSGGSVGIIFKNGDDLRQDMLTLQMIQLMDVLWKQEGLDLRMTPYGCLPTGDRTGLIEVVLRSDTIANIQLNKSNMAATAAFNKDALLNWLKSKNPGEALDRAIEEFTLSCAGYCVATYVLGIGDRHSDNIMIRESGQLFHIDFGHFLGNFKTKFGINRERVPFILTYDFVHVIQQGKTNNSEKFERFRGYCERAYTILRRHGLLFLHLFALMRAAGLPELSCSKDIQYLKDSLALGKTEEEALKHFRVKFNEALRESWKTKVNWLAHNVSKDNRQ
Sequence of PI3K δ (P27986 whole entry partner): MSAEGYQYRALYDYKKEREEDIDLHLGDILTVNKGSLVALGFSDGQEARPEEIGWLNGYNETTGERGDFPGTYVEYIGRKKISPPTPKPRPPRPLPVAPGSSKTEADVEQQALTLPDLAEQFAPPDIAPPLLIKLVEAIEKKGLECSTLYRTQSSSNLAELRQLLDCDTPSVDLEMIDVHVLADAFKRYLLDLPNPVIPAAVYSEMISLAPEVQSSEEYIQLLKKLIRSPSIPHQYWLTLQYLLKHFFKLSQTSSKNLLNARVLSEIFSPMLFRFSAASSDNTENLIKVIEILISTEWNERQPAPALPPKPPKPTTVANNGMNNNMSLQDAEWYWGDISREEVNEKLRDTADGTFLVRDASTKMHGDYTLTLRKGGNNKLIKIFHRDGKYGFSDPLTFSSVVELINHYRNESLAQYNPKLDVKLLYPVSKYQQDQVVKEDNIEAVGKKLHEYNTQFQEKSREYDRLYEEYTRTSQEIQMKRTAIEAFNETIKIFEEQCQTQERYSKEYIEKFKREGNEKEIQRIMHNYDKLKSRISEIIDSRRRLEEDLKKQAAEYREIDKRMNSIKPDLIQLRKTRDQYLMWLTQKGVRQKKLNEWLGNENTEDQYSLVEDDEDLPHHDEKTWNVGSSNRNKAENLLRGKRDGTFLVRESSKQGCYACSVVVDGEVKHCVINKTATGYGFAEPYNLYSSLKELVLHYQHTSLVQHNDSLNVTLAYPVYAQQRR

T1 sequence (P42338 whole entry): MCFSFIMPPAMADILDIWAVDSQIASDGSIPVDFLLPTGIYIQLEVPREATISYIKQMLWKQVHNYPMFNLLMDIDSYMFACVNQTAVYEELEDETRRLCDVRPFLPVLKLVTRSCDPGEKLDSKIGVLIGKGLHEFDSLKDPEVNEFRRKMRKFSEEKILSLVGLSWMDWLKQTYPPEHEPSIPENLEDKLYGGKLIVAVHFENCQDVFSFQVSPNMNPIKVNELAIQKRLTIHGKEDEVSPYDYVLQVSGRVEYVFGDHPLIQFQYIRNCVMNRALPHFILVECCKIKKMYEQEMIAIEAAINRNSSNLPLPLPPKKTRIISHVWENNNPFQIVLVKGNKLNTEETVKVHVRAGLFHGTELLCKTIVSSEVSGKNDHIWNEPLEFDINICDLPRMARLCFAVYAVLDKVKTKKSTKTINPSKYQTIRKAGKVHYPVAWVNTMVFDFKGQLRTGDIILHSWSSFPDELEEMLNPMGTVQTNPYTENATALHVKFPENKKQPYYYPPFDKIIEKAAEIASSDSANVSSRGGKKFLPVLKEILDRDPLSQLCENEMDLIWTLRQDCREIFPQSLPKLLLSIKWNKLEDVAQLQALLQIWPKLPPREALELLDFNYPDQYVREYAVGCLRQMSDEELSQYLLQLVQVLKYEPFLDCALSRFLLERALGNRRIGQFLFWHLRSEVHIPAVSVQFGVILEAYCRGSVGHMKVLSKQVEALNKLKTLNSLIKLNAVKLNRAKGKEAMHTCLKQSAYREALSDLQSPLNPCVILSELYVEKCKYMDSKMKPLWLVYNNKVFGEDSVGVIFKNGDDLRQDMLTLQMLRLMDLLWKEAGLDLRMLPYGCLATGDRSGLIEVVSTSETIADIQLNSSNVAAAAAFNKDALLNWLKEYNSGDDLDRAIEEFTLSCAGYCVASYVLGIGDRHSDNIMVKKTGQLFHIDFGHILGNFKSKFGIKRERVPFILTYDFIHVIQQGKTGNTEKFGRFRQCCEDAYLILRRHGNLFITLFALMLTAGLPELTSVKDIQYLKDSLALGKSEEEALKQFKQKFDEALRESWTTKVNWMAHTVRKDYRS
T1 sequence (P27986 whole entry partner): as the sequence (P27986 whole entry partner) above

C[C@H](Nc1ncnc2[nH]cnc12)c1cc2cccc(Cl)c2c(=O)n1-c1ccccc1 [Compound 292]
window between PI3K-γ and PI3K-β inhibition in whole blood (PI3K-β): about 4 fold | reduction of final paw weights ([1]; 5 mg/kg BID): 30% | reduction of histopathologic bone resorption ([1]; 5 mg/kg BID): 72% | reduction of histopathologic inflammation ([1]; 5 mg/kg BID): 18% | inhibition of ankle diameter AUC (d7-14) increase ([1]; 5 mg/kg BID PO days 5-14): 24% | reduction of final paw weights ([1]; 10 mg/kg QD): 23% | reduction of histopathologic bone resorption ([1]; 10 mg/kg QD): 67% | reduction of histopathologic inflammation ([1]; 10 mg/kg QD): 15% | inhibition of ankle diameter AUC (d7-14) increase ([1]; 10 mg/kg QD PO days 5-14): 31% | reduction of final paw weights ([1]; 50 mg/kg QD): 98% | reduction of histopathologic bone resorption ([1]; 50 mg/kg QD): 100% | reduction of histopathologic inflammation ([1]; 50 mg/kg QD): 88% | inhibition of ankle diameter AUC (d7-14) increase ([1]; 50 mg/kg QD PO days 5-14): 95% | protein bound in rat plasma [2]: 85.8% | Foral ([3]; BALB/c mice, PO 10 mg/kg suspension, calculated using AUC0-last): 7% and 7^i % | half-life ([3]; BALB/c, mouse, in vivo, iv, 10 mg/kg): < 2 h | respiratory parameters (respiratory rate, tidal volume, minute volume) (respiratory system): no Compound 292-related effects | Emax (reduction of basophil activation vs plasma concentration) (PI3K δ; FIG. 21): 85% | basophil activation (PI3K δ; single and multiple doses, all dose levels, maximum at 1 hr post dose): dose-dependent reduction

Source: patent US20140120060A1, “TREATMENT OF RHEUMATOID ARTHRITIS AND ASTHMA USING PI3 KINASE INHIBITORS” (INFINITY PHARMACEUTICALS, INC., priority 2012, published 2014)
